Experimental data from ChEMBL document CHEMBL5356999, “Discovery and characterization of novel TRPML1 agonists” (Bioorg Med Chem Lett, 2024).
pEC50: −log10 of the molar value.

Tests used:
[1] = Effect on TRPML1 knockout HEK293 cells; format: functional, cell-based, Homo sapiens
[2] = Apparent permeability across apical to basolateral side in MDCK-MDR1 cells; format: ADME, cell-based, Canis lupus familiaris; conditions: dog
[3] = Efflux ratio of apparent permeability in MDCK-MDR1 cells; format: ADME, cell-based, Canis lupus familiaris; conditions: dog
[4] = Plasma protein binding in mouse; format: ADME, cell-free
[5] = Plasma protein binding in rat; format: ADME
[6] = Plasma protein binding in cynomolgus monkey; format: ADME, cell-free, Macaca fascicularis
[7] = Plasma protein binding in human; format: ADME
[8] = Protein binding in mouse brain; format: ADME, tissue-based
[9] = Stability in mouse hepatocytes assessed as half life; format: ADME, cell-based, Hepatocyte
[10] = Stability in rat hepatocytes assessed as half life; format: ADME, cell-based, Hepatocyte
[11] = Stability in cynomolgus monkey hepatocytes assessed as half life; format: ADME, cell-based, Macaca fascicularis, Hepatocyte
[12] = Cmax in mouse at 10 mg/kg, po or 1 mg/kg, iv; format: ADME, organism-based; design: dose 10 mg/kg, route po; conditions: in vivo
[13] = Stability in human hepatocytes assessed as half life; format: ADME, cell-based, Hepatocyte
[14] = Stability in dog assessed as half life; format: ADME, cell-based, Canis lupus familiaris, Hepatocyte; conditions: hepatocytes
[15] = Stability in mouse assessed as intrinsic clearance; format: ADME, cell-based, Hepatocyte; conditions: hepatocytes
[16] = Stability in rat assessed as intrinsic clearance; format: ADME, cell-based, Hepatocyte; conditions: hepatocytes
[17] = Stability in cynomolgus monkey assessed as intrinsic clearance; format: ADME, cell-based, Macaca fascicularis, Hepatocyte; conditions: hepatocytes
[18] = Stability in human assessed as intrinsic clearance; format: ADME, cell-based, Hepatocyte; conditions: hepatocytes
[19] = Stability in dog assessed as intrinsic clearance; format: ADME, cell-based, Canis lupus familiaris, Hepatocyte; conditions: hepatocytes
[20] = Half life in mouse at 1 mg/kg, IV; format: ADME, organism-based; conditions: in vivo
[21] = Unbound brain-to-plasma concentration ratio in mouse measured after 8 hrs; format: ADME, cell-free; conditions: read-out: K(p,uu,brain)
[22] = Bioavailability in mouse at 10 mg/kg, po or 1 mg/kg, iv; format: ADME, organism-based; conditions: in vivo
[23] = Clearance in mouse at 10 mg/kg, po or 1 mg/kg, iv; format: ADME, organism-based; conditions: in vivo
[24] = Volume of distribution at steady state in mouse at 10 mg/kg, po or 1 mg/kg, iv; format: ADME, organism-based; conditions: in vivo
[25] = Half life in mouse at 10 mg/kg, PO; format: ADME, organism-based; conditions: in vivo

| SMILES | pEC50 [1] | Papp A→B [2] [×10⁻⁶ cm/s] | efflux ratio [3] | fu [4] [%] | fu [5] [%] | fu [6] [%] | fu [7] [%] | fu,brain [8] [%] | half-life [9] [min] | half-life [10] [min] | half-life [11] [min] | Cmax [12] [ng/mL] | half-life [13] [min] | half-life [14] [min] | clearance [15] [mL/min/kg] | clearance [16] [mL/min/kg] | clearance [17] [mL/min/kg] | clearance [18] [mL/min/kg] | clearance [19] [mL/min/kg] | half-life [20] [min] | further results |
| --- | --- | --- | --- | --- | --- | --- | --- | --- | --- | --- | --- | --- | --- | --- | --- | --- | --- | --- | --- | --- | --- |
| Clc1cccc(N2CCN(C3c4ccccc4CCCCn4nnnc43)CC2)c1 (stereo not drawn) | < 4.31 |  |  |  |  |  |  |  |  |  |  |  |  |  |  |  |  |  |  |  |  |
| Clc1cccc(N2CCN(C3c4ccccc4CCCCCn4nnnc43)CC2)c1 (stereo not drawn) | < 4.31 |  |  |  |  |  |  |  |  |  |  |  |  |  |  |  |  |  |  |  |  |
| CN(C)S(=O)(=O)c1ccc(S(=O)(=O)Nc2cccc(Cl)c2N2CCCCC2)cc1 | 6.00 |  |  |  |  |  |  |  |  |  |  |  |  |  |  |  |  |  |  |  |  |

Further lines, with some results ahead:

| pEC50 [1] | Papp A→B [2] [×10⁻⁶ cm/s] | efflux ratio [3] | fu [4] [%] | fu [5] [%] | fu [6] [%] | fu [7] [%] | fu,brain [8] [%] | half-life [9] [min] | half-life [10] [min] | half-life [11] [min] | Cmax [12] [ng/mL] | half-life [13] [min] | half-life [14] [min] | clearance [15] [mL/min/kg] | clearance [16] [mL/min/kg] | clearance [17] [mL/min/kg] | clearance [18] [mL/min/kg] | clearance [19] [mL/min/kg] | half-life [20] [min] | SMILES | further results |
| --- | --- | --- | --- | --- | --- | --- | --- | --- | --- | --- | --- | --- | --- | --- | --- | --- | --- | --- | --- | --- | --- |
| < 4.31 | 10.7 | 0.6 | 1 | 0.8 | 1 | 0.4 | 0.3 | 39.1 | 9.78 | 14.2 | 8.96 | 37 | 46.3 | 209 | 332 | 190 | 47.6 | 103 | 115 | CC(C)n1nnnc1[C@H](c1ccccc1F)N1CCN(c2cccc(Cl)c2)CC1 | Kp uu at 8 h [21]: 0.55; bioavailability [22]: 3.45%; CL [23]: 109 mL/min/kg; Vdss [24]: 9.27 L/kg |
| < 4.31 |  |  |  |  |  |  |  |  |  |  |  |  |  |  |  |  |  |  |  | Clc1cccc(N2CCN(C3c4ccccc4/C=C\CCCn4nnnc43)CC2)c1 (stereo not drawn) |  |
| < 4.31 | 9.9 | 0.4 | 0.5 | 0.4 | 0.7 | 0.6 | 0.3 | 48 | 4.97 | 39.1 | 36.2 | 16.9 | 57 | 170 | 652 | 69.1 | 104 | 83.7 | 131 | CC(C)n1nnnc1[C@@H](c1ccccc1F)N1CCN(c2cccc(Cl)c2)CC1 | half-life [25]: 104 min; Kp uu at 8 h [21]: 0.77; bioavailability [22]: 12.4%; CL [23]: 103 mL/min/kg; Vdss [24]: 9.01 L/kg |
